Measurements from patent US11466044B2 (WAYNE STATE UNIVERSITY, priority 2017, dated 2022).
pIC50: −log10 of the molar value. Values after ≈ are worked out from the molar mass of the structure shown. Read-outs that look alike come from different tables or passages of the source.

Experiments:
[1] = test system: wild type bacterial ribosomes; assay: in-vitro translation assay, bacterial ribosomes; format: biochemical; details: bacterial ribosome, read-out: IC50 Bac
Excerpt: (§1) The antiribosomal activity of these compounds was investigated with cell-free translation assays using both wild type bacterial ribosomes and hybrid ribosomes carrying eukaryotic decoding A sites enabling the prediction of selectivity.

[2] = test system: E coli carrying specific resistance determinants; assay: MIC by broth microdilution, E coli carrying specific resistance determinants; format: cell-based; details: for MIC50 / MIC: Escherichia coli
[3] = test system: A1555G mutant mitochondrial ribosome (human chimeric); assay: in-vitro translation assay, human chimeric ribosomes, A1555G mutant mitochondrial decoding site; format: biochemical; details: human mitochondrial decoding site with A1555G point mutation; read-out: IC50 Mitoch. A1555G
Excerpt: as §1

P aeruginosa = assay: MIC by broth microdilution, P aeruginosa isolates; format: cell-based, Pseudomonas aeruginosa

NC[C@@H]1O[C@H](O[C@H]2[C@@H](O)[C@H](O[C@@H]3[C@@H](O)[C@H](N)C[C@H](N)[C@H]3O[C@H]3O[C@H](CO)[C@@H](O)[C@H](O)[C@H]3N)O[C@@H]2CO)[C@H](N)[C@@H](O)[C@@H]1O [paromomycin, reference compound]
pIC50 ([1]; Table 3 (Example 2)): 7.40 | pIC50 ([1]; Table 4 (Example 3)): 7.40 | MIC APH(3′)-II ([2]; APH(3′)-II, Table 3 (Example 2)): >64 µg/mL | MIC50 ([2]; read-out: MIC50 E coli AG07 AAC(3), AG07 AAC(3), Table 2A (Example 2)): 4 to 8 µg/mL (≈ 6.5 to 13 µM) | MIC50 ([2]; read-out: MIC50 E coli AG09 AAC(6′), AG09 AAC(6′), Table 2A (Example 2)): 8 to 16 µg/mL (≈ 13 to 26 µM) | MIC50 ([2]; read-out: MIC50 E coli AG036 ANT(4′,4″), AG036 ANT(4′,4″), Table 2A (Example 2)): 256 µg/mL (≈ 416 µM) | MIC50 ([2]; read-out: MIC50 E coli AG036 ANT(4′,4″), AG036 ANT(4′,4″), Table 2B (Example 2)): 32 to 64 µg/mL (≈ 52 to 104 µM) | MIC50 ([2]; read-out: MIC50 E coli AG037 APH(3′)-III, AG037 APH(3′)-III, Table 2B (Example 2)): > 128 µg/mL | MIC50 ([2]; read-out: MIC50 E coli AG037 APH(3′,5″), AG037 APH(3′,5″), Table 2A (Example 2)): > 256 µg/mL | MIC50 ([2]; read-out: MIC50 E coli AG103 ArmA, AG103 ArmA, Table 2A (Example 2)): 4 µg/mL (≈ 6.5 µM) | MIC50 ([2]; read-out: MIC50 E coli AG103 armA, AG103 armA, Table 2B (Example 2)): 2 µg/mL (≈ 3.25 µM) | MIC50 ([2]; read-out: MIC50 E coli AG105 AAC(2′), AG105 AAC(2′), Table 2A (Example 2)): 2 to 4 µg/mL (≈ 3.25 to 6.5 µM) | MIC50 ([2]; read-out: MIC50 E coli pH414 AAC(6′)-I, pH414 AAC(6′)-I, Table 2B (Example 2)): 2 µg/mL (≈ 3.25 µM) | MIC50 ([2]; read-out: MIC50 E coli pH415 AAC(6′)-II, pH415 AAC(6′)-II, Table 2B (Example 2)): 2 to 4 µg/mL (≈ 3.25 to 6.5 µM) | MIC50 ([2]; read-out: MIC50 E coli pH421 APH(3′)-I, pH421 APH(3′)-I, Table 2B (Example 2)): > 128 µg/mL | MIC50 ([2]; read-out: MIC50 E coli pH422 APH(3′)-II, pH422 APH(3′)-II, Table 2B (Example 2)): > 128 µg/mL | MIC50 ([2]; read-out: MIC50 E coli pH423 APH(3)-VI, pH423 APH(3)-VI, Table 2B (Example 2)): > 128 µg/mL | MIC50 ([2]; read-out: MIC50 E coli pH432 ANT(4′), pH432 ANT(4′), Table 2B (Example 2)): 1 to 2 µg/mL (≈ 1.62 to 3.25 µM) | MIC ([2]; read-out: MIC AAC(6′)): 2 to 4 µg/mL (≈ 3.25 to 6.5 µM) | MIC ([2]; read-out: MIC AG003 E. coli AAC(3)-II): 2 to 4 µg/mL (≈ 3.25 to 6.5 µM) | MIC ([2]; read-out: MIC AG036 ANT(4′,4′′)): 32 to 64 µg/mL (≈ 52 to 104 µM) | MIC ([2]; read-out: MIC AG037 APH(3′)-III): > 128 µg/mL | MIC ([2]; read-out: MIC AG037 E. coli APH(3′)-III): > 128 µg/mL | MIC ([2]; read-out: MIC AG103 armA): 2 µg/mL (≈ 3.25 µM) | MIC ([2]; read-out: MIC AG163 E. coli APH(3′)-I): > 128 µg/mL | MIC ([2]; read-out: MIC AG166 E. coli APH(3′)-II): > 128 µg/mL | MIC ([2]; read-out: MIC ANT(4′)): 32 to 64 µg/mL (≈ 52 to 104 µM) | MIC ([2]; read-out: MIC APH(3)-VI): > 64 µg/mL | MIC ([2]; read-out: MIC APH(3′)-I): > 64 µg/mL | MIC ([2]; read-out: MIC APH(3′)-II): > 64 µg/mL | MIC ([2]; read-out: MIC APH(3′)-III): > 64 µg/mL | MIC ([2]; read-out: MIC APH(3′)-VI): > 64 µg/mL | MIC ([2]; read-out: MIC E coli AG007 ANT(3″) AAC(3)-I): 4 µg/mL (≈ 6.5 µM) | MIC ([2]; read-out: MIC E coli AG103 ArmA): 1 to 2 µg/mL (≈ 1.62 to 3.25 µM) | MIC ([2]; read-out: MIC E coli AG106 AAC(2′)): > 64 µg/mL | MIC ([2]; read-out: MIC E coli AG163/164 APH(3′)-Ia): > 128 µg/mL | MIC ([2]; read-out: MIC E coli AG166 APH(3′)-IIa): > 128 µg/mL | MIC ([2]; read-out: MIC E coli AG173 AAC(3)-IV): 2 to 4 µg/mL (≈ 3.25 to 6.5 µM) | MIC ([2]; read-out: MIC E coli AG182 AAC(3)-IV APH(3′)-Ia): > 128 µg/mL | MIC ([2]; read-out: MIC E. coli AAC(2′) AG106): > 64 µg/mL | MIC ([2]; read-out: MIC E. coli AAC(2′) pH434): > 64 µg/mL | MIC ([2]; read-out: MIC E. coli AG106 AAC(2′)-Ia): > 64 µg/mL | MIC ([2]; read-out: MIC E. coli pGB2armA armA): 2 µg/mL (≈ 3.25 µM) | MIC ([2]; read-out: MIC E. coli pH434 AAC(2′)-Ib): > 64 µg/mL | MIC ([2]; read-out: MIC pH414 AAC(6′)-I): 2 µg/mL (≈ 3.25 µM) | MIC ([2]; read-out: MIC pH415 AAC(6′)-II): 2 to 4 µg/mL (≈ 3.25 to 6.5 µM) | MIC ([2]; read-out: MIC pH421 APH(3)-I): > 128 µg/mL | MIC ([2]; read-out: MIC pH421 E. coli APH(3′)-I): > 128 µg/mL | MIC ([2]; read-out: MIC pH422 APH(3′)-II): > 128 µg/mL | MIC ([2]; read-out: MIC pH422 E. coli APH(3′)-II): > 128 µg/mL | MIC ([2]; read-out: MIC pH423 APH(3′)-VI): > 128 µg/mL | MIC ([2]; read-out: MIC pH423 E. coli APH(3′)-VI): > 128 µg/mL | MIC ([2]; read-out: MIC pH432 ANT(4′)): 1 to 2 µg/mL (≈ 1.62 to 3.25 µM) | pIC50 [3]: 4.82 | MIC50 (P aeruginosa; Pseudomonas aeruginosa, read-out: MIC50 P aeruginosa AG31): > 128 µg/mL | MIC50 (P aeruginosa; Pseudomonas aeruginosa, read-out: MIC50 P aeruginosa AG32): > 128 µg/mL | MIC50 (P aeruginosa; Pseudomonas aeruginosa, read-out: MIC50 P aeruginosa AG33): > 128 µg/mL | MIC50 (P aeruginosa; Pseudomonas aeruginosa, read-out: MIC50 P aeruginosa AG86): > 128 µg/mL | MIC (P aeruginosa; Pseudomonas aeruginosa, read-out: MIC AG031 P. aer. APH(3′)-II): > 128 µg/mL | MIC (P aeruginosa; Pseudomonas aeruginosa, read-out: MIC AG032 P. aer. APH(3′)-II): > 128 µg/mL | MIC50 P aeruginosa AG31 (P aeruginosa; strain AG31, Table 1 (Example 2)): >128 µg/mL | MIC50 P aeruginosa AG32 (P aeruginosa; strain AG32, Table 1 (Example 2)): >128 µg/mL | MIC50 P aeruginosa AG33 (P aeruginosa; strain AG33, Table 1 (Example 2)): >128 µg/mL | MIC50 P aeruginosa AG86 (P aeruginosa; strain AG86, Table 1 (Example 2)): >128 µg/mL | MIC (P aeruginosa; strain AG220 Pseudomonas aeruginosa ATCC27853, read-out: MIC AG220 P. aerugin): > 64 µg/mL
